# Test results from patent US5215994A, “Angiotenin II antagonizing heterocyclic derivatives” (Fujisawa Pharmaceutical Co., Ltd., priority 1990, dated 1993).
# Tested on: contractile response to angiotensin II in excised guinea pig ileum
# Experiment: Inhibition by the antagonist of contractile response to angiotensin II in excised guinea pig ileum
# Details: excised guinea pig ileum longitudinal strips; angiotensin II 10^-8 g/ml; test compound added 3 minutes prior; atropine present; 37° C.; read-out: IC50 (inhibition of angiotensin II contraction, percentage change to control response)
# Method: [2] Inhibition by the antagonist of contractile response to angiotensin II in excised guinea pig ileum
# Male guinea pigs weighing 300 g to 500 g were sacrificed by decapitation and the ileum were excised. Longitudial strips of the ileum (length: 2 cm) were placed in a 25 ml organ bath containing Tyrode's solution of the following composition (mM): NaCl, 137; KCl, 2.7; CaCl2, 1.8; MgCl2, 1.1; NaH2 PO4, 0.4; NaHCO3, 12; Glucose, 5.6.
# The bath was maintained at 37° C. and bubbled with 95% O2 +5% CO2. The strips was stretched with a resting force of 0.5 g, and the isometric contraction were recorded via force development transducer on an ink-writing recorder. The preparation was equilibrated in Tyrode's solution mentioned above for 30 minutes, and then exposed to atropine (3.2×10^-7 g/ml) Five minutes later, the response for angiotensin II (1×10^-8 g/ml) was obtained and the preparation was washed a few times. This procedure was repeated twice. […] The inhibition of the test compound for angiotensin II contraction were expressed as a percentage change to control response, and IC50 (M) was calculated.
smiles,measurement,value
"CCCCc1nc2c(C)ccnc2n1Cc1ccc(-n2cc(Br)cc2-c2nnn[nH]2)cc1 [Compound 1, 3-[4-[4-Bromo-2-(1H-tetrazol-5-yl)-1-pyrrolyl]benzyl]-2-butyl-7-methyl-3H-imidazo[4,5-b]pyridine]",IC50,1.7 nM
